Test results reported in publication PMC10683027, “Discovery of tert-Butyl Ester Based 6-Diazo-5-oxo-L-norleucine Prodrugs for Enhanced Metabolic Stability and Tumor Delivery” (Journal of Medicinal Chemistry, 2023).

Tests used:
[1] = Metabolic stability in mouse intestinal homogenate (GIh); conditions: for remaining at 1 h, 10 µM / remaining at 1 h, 10 μM: CES1–/–, mouse, intestinal homogenate; for Intestinal homogenate: supplementary CSV, unit not given, matches Table 1 % remaining at 1 h, in %
[2] = Metabolic stability in mouse plasma; conditions: for Plasma: supplementary CSV, unit not given, matches Table 1 % remaining at 1 h, in %

| Compound | remaining at 1 h, 10 µM [1] [%] | remaining at 1 h, 10 μM [1] [%] | Intestinal homogenate [1] | remaining at 1 h, 10 µM ([2]; CES1–/–, mouse, plasma) [%] | Plasma [2] | remaining at 1 h, 10 μM ([2]; CES1–/–, mouse, plasma) [%] |
| --- | --- | --- | --- | --- | --- | --- |
| CC(=O)N[C@@H](Cc1c[nH]c2ccccc12)C(=O)N[C@@H](CCC(=O)C=[N+]=[N-])C(=O)OC1CC1 [Prodrug P3, Cyclopropyl (S)-2-((S)-2-Acetamido-3-(1H-indol-3-yl)propanamido)-6-diazo-5-oxohexanoate] | 6 | < 10 | 6 ± 0 | – | – | – |
| CN(C)CC(=O)N[C@H](Cc1ccccc1)C(=O)N[C@@H](CCC(=O)C=[N+]=[N-])C(=O)OC(C)(C)C [Prodrug P12, tert-Butyl (S)-6-Diazo-2-((R)-2-(2-(dimethylamino)acetamido)-3-phenylpropanamido)-5-oxohexanoate] | 90 ± 3 | – | 90 ± 3 | 92 | 92 ± 0 | – |
| CN(C)CC(=O)N[C@@H](Cc1cn(C)c2ccccc12)C(=O)N[C@@H](CCC(=O)C=[N+]=[N-])C(=O)OC(C)(C)C [Prodrug P10, tert-Butyl (S)-6-Diazo-2-((S)-2-(2-(dimethylamino)acetamido)-3-(1-methyl-1H-indol-3-yl)propanamido)-5-oxohexanoate] | 87 ± 2 | – | 87 ± 2 | 97 ± 2 | 97 ± 2 | – |
| CC(C)C[C@H](NC(=O)CN(C)C)C(=O)N[C@@H](CCC(=O)C=[N+]=[N-])C(=O)OC(C)(C)C [Prodrug P20, tert-Butyl (S)-6-Diazo-2-((S)-2-(2-(dimethylamino)acetamido)-4-methylpentanamido)-5-oxohexanoate] | 79 | – | 79 ± 0 | 98 ± 2 | 98 ± 2 | – |
| CNC(=O)[C@H](CCC(=O)C=[N+]=[N-])NC(=O)[C@H](Cc1c[nH]c2ccccc12)NC(C)=O [Prodrug P6, (S)-2-((S)-2-Acetamido-3-(1H-indol-3-yl)propanamido)-6-diazo-N-methyl-5-oxohexanamide] | 77 ± 1 | > 50 | 77 ± 1 | 102 ± 1 | 102 ± 1 | – |
| CN(C)CC(=O)N[C@H](C(=O)N[C@@H](CCC(=O)C=[N+]=[N-])C(=O)OC(C)(C)C)c1ccccc1 [Prodrug P13, tert-Butyl (S)-6-Diazo-2-((S)-2-(2-(dimethylamino)acetamido)-2-phenylacetamido)-5-oxohexanoate] | – | 92 ± 1 | 92 ± 1 | – | 92 ± 1 | 92 ± 1 |
| COC(=O)[C@H](CCC(=O)C=[N+]=[N-])NC(=O)[C@H](Cc1c[nH]c2ccccc12)NC(C)=O [Prodrug P1, Methyl (S)-2-((S)-2-Acetamido-3-(1H-indol-3-yl)propanamido)-6-diazo-5-oxohexanoate] | 4 | < 10 | 4 ± 0 | – | – | – |
| CN(C)CC(=O)NCC(=O)N[C@@H](CCC(=O)C=[N+]=[N-])C(=O)OC(C)(C)C [Prodrug P18, tert-Butyl (S)-6-Diazo-2-(2-(2-(dimethylamino)acetamido)acetamido)-5-oxohexanoate] | 97 ± 1 | – | 97 ± 1 | 108 ± 1 | 108 ± 1 | – |
| CC(=O)N[C@@H](Cc1c[nH]c2ccccc12)C(=O)N[C@@H](CCC(=O)C=[N+]=[N-])C(=O)OCC1CC1 [Prodrug P4, Cyclopropylmethyl (S)-2-((S)-2-Acetamido-3-(1H-indol-3-yl)propanamido)-6-diazo-5-oxohexanoate] | 1 | < 10 | 1 ± 0 | – | – | – |
| CCOC(=O)[C@H](CCC(=O)C=[N+]=[N-])NC(=O)[C@H](Cc1c[nH]c2ccccc12)NC(C)=O [Prodrug P2, Ethyl (S)-2-((S)-2-Acetamido-3-(1H-indol-3-yl)propanamido)-6-diazo-5-oxohexanoate] | 2 | < 10 | 2 ± 0 | – | – | – |
